In patent US20190049456A1, “METHOD FOR DETECTING OR SEPARATING/OBTAINING CIRCULATING TUMOR CELL EMPLOYING CELL PROLIFERATION METHOD” (priority 2016, published 2019):

Test system: circulating tumor cell (CTC)
Test: CTC obtainment test (CTCs-inducing ability / CTC yield efficiency) by culture of patient PBMCs in test culture media
Type: cell-based, human
Details: additive component study
Description: Examples of the present invention followed experimental methods given below. Specifically, all experimental samples (peripheral blood from various cancer patients who donated blood) were aseptically treated by procedures given below. In the case where infections by various viruses such as HBV and HCV were found in advance according to information from each cooperating facility, the treatment thereof was tested aside from a non-infected group and proper medical waste treatment was carried out by medical waste treatment professionals. 1. A disposable 30 ml syringe for blood collection containing an appropriate amount of an anticoagulant heparin sodium (0.05 ml) was provided, and a disposable 30 ml blood collection syringe for serum procurement containing no heparin sodium was also provided. These syringes were respectively connected to insertion ports of L-type 180° three-way stopcock, while an appropriate 18-, 21- or 24-gauge butterfly needle was connected to the vascular vessel side to prepare for blood collection. 30 ml of blood per each sample was collected, and the following separation operation was carried out. 2. For serum collection, the blood collection syringe barrel with a needle put thereon was placed at 37° C. for 1 hour in a 5% CO2 incubator, followed by centrifugation at 3,000 rpm (800 G) at 4° C. for 30 minutes. […]

Q: Which CTC-inducing effect does the source give for lipopolysaccharide [LPS] here?
A: The CTC-inducing effect was “slightly observed”.
